Assay [1] has as its system Splenocyte. Description: Cytoprotective activity against mouse splenocyte co-cultured with MDA-MB-231 cells overexpressing PD-L1 assessed as rescue of cell proliferation at 100 nM by cell proliferation assay. In kind it is functional.
The test system of assay [2] is Splenocyte. As to the kind of experiment: Rescue of cell viability in mouse PD-L1 stimulated splenocyte at 100 nM incubated for 72 hrs by CFSE proliferation assay. In kind it is functional.
Assay [3] has as its target T1, Programmed cell death protein 1/Programmed cell death 1 ligand 1 (Homo sapiens, UniProt Q15116+Q9NZQ7). Description: Inhibition of human PD-1/PD-L1 interaction by HTRF binding assay. Format: protein-complex assay. A general note: TR-FRET usually uses a lanthanide donor and a delayed reading to cut background.
In assay [4] the target is T1, Programmed cell death protein 1/Programmed cell death 1 ligand 1. As to the kind of experiment: Inhibition of recombinant human PD-1/PD-L1 interaction incubated for 40 mins by HTRF binding assay. In kind it is protein-complex assay.
For assay [5] the target is unchanged. Description: Inhibition of PD-1/PD-L1 interaction (unknown origin). Format: protein-complex assay.
The subject of assay [6] is B16-F10. As to the kind of experiment: Antitumor activity in mouse B16-F10 cells xenografted mouse lung metastasis model assessed as reduction in lung metastasis. Further details: scale not given: the % may be the effect or the level left. In kind it is functional.
In assay [7] the target is T1, Programmed cell death protein 1/Programmed cell death 1 ligand 1. As to the kind of experiment: Inhibition of PD-1/PD-L1 interaction (unknown origin) by HTRF binding assay. Format: protein-complex assay.
In assay [8] the test system is B16-F10. As to the kind of experiment: Antitumor activity in mouse B16-F10 cells xenografted mouse model assessed as tumor growth inhibition at 15 mg/kg,sc. Format: functional.
Assay [9] can be described thus: Cytoprotective activity against rat PMA-stimulated PBMC cells expressing PD-1 co-cultured with human MDA-MB-231 cells expressing PD-L1 assessed as rescue of cell proliferation by cell proliferation assay. Format: functional, cell-based.
A short description of assay [10]: Cytoprotective activity against rat PMA-stimulated PBMC cells expressing PD-1 co-cultured with human HEK293 cells expressing PD-L2 assessed as rescue of cell proliferation by cell proliferation assay. In kind it is functional, cell-based.
The target in assay [11] is T1, Programmed cell death protein 1/Programmed cell death 1 ligand 1. Description: Inhibition of PD-1/PD-L1 interaction (unknown origin) incubated for 15 mins by HTRF assay. Format: protein-complex assay.
The target is the same in assay [12]. Description: Inhibition of PD-1/PD-L1 interaction (unknown origin) incubated for 1 to 24 hrs by HTRF assay. In kind it is protein-complex assay.
For assay [13], the system named is CT26. Description: Antitumor activity against mouse CT26 cells xenografted BALB/c mouse assessed as reduction in tumor growth. In kind it is functional. Further details: scale not given: the % may be the effect or the level left.
The target in assay [14] is T2, V-type immunoglobulin domain-containing suppressor of T-cell activation (Homo sapiens, UniProt Q9H7M9).
T2 sequence (Q9H7M9 whole entry): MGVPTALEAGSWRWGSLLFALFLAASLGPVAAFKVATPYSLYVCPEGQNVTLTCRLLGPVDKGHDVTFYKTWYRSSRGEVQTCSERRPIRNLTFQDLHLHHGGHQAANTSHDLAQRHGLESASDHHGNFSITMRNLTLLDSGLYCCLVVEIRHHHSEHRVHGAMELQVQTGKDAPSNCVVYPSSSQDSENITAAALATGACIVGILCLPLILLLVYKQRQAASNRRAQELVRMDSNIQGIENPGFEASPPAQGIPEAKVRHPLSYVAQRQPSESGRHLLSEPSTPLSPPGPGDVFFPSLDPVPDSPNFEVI
As to the kind of experiment: Inhibition of VISTA (unknown origin).

Assay [15] addresses T3, Programmed cell death 1 ligand 1 (Homo sapiens, UniProt Q9NZQ7). Description: Inhibition of PD-L1 (unknown origin).
In assay [16] the target is T3, Programmed cell death 1 ligand 1. Description: Binding affinity to human recombinant PD-L1 by surface plasmon resonance assay.
The subject of assay [17] is NCI-H460. As to the kind of experiment: Antitumor activity in human NCI-H460 cells xenografted Balb/c mouse assessed as reduction in tumor mass at 4 mg/kg,sc administrated upto 72 hrs. Format: functional. Further details: scale not given: the % may be the effect or the level left. (In general: In xenograft studies the graft and the host belong to different species.)

Assay [18] can be described thus: Cytoprotective activity against mouse PD-1 stimulated T cell assessed as rescue of PD-1 stimulated inhibition of IFN-gamma production by ELISA. In kind it is functional, cell-based. On the technique in general: An ELISA detects its analyte on a solid surface through an enzyme-linked reagent.

Square brackets hold non-standard residues; d marks the D form. Peptide text beside a SMILES is read from it. * marks the point of attachment. ξ: configuration not given here. X1 = NC(CO)C(=O)NC(Cc1ccccc1)C(=O)NCCCCN*; ξE = NC(CCC(=O)O)C(=O)O Some results are limits rather than exact numbers.

T3 sequence (Q9NZQ7 whole entry): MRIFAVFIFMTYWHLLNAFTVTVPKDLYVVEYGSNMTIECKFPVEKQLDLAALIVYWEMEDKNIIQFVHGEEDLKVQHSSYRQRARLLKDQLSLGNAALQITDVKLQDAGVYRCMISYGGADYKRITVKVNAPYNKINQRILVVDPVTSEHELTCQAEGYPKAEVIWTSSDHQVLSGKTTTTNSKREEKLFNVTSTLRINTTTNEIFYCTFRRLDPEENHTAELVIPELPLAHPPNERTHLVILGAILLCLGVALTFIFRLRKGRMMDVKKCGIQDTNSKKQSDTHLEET
T1 sequence (Q15116 whole entry): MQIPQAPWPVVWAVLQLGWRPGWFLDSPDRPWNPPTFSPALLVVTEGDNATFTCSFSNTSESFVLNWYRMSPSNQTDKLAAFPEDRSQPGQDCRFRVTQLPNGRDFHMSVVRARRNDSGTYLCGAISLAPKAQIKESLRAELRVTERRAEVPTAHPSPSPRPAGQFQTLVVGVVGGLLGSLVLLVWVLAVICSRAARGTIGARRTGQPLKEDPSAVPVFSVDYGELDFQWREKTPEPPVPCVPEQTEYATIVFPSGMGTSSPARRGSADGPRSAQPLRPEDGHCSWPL
T1 sequence (Q9NZQ7 whole entry): as the sequence (Q9NZQ7 whole entry) above

As for `NCCCC[C@H](NC(=O)N[C@@H](CC(N)=O)C(=O)NNC(=O)[C@@H](N)CO)C(=O)O`, in assay [1], the Activity was determined as 87%. In the case of `C[C@@H](O)[C@H](N)c1noc([C@H](Cc2ccc(O)cc2)NC(=O)N2CCC[C@H]2C(=O)O)n1`, the Activity in assay [2] came out at 99%. As a reminder, the IC50 is the concentration at which inhibition is half-maximal. As to `COc1nc(OCc2cccc(-c3cccc(COc4ccc(CNCCNC(C)=O)c(OC)n4)c3C)c2C)ccc1CNCCNC(C)=O`, in assay [3], the IC50 was 125 nM. For `N#Cc1c(NC(=O)c2ccc(CNCCO)cn2)cccc1-c1ccccc1`, the IC50 in assay [4] is under 10 nM. The compound `Cc1c(-c2ccccc2)cccc1-c1nc2cc(CNCCO)ccc2o1` had an IC50 in assay [5] of under 1000 nM. Turning to `Cc1c(NC(=O)c2cc(CN3CCCC[C@H]3C(=O)O)cn(C)c2=O)cccc1-c1ccccc1`, the half-inhibitory concentration (IC50) in [4] is under 100 nM.

As for `C[C@H](O)[C@@H]1NC(=O)CCOCCOCCNC(=O)[C@H](CO)NC(=O)N[C@H](C(N)=O)C(=O)NNC1=O`, the Activity in assay [2] is listed as 94%. With `C[C@@H](O)[C@@H]1NC(=O)C(N[C@@H](CO)C(=O)O)CCC(=O)NCCCCC(C(=O)N[C@@H](CO)C(=O)N[C@@H](Cc2ccccc2)C(N)=O)NC(=O)[C@H](CO)NC1=O` (some centres undefined), in [6], the Activity is 54%. As to `Cc1cc(CN[C@@H](CO)C(=O)O)c(OCc2cncc(C#N)c2)cc1OCc1cccc(-c2ccc3c(c2)OCCO3)c1C`, in [7], the IC50 was found to be 2.25 nM. The inhibition in vivo is the drop in the measured response relative to a control, in per cent. Turning to `O=C(O)[C@H](CO)NCc1cc(Cl)c(OCc2cccc(-c3ccccc3)c2Br)cc1OCc1cccnc1`, the inhibition in vivo at 15 mg/kg in assay [8] was determined as 64.1%. The compound `Cc1c(COc2cc(OCc3cccc(C#N)c3)c(CN[C@@H](CO)C(=O)O)cc2Cl)cccc1-c1ccc2c(c1)OCCO2` came in with an IC50 in assay [7] of 1.48 nM. As for `Cc1c(COc2cc(OCc3cccc(C#N)c3)c(CN[C@H](CCO)C(=O)O)cc2Cl)cccc1-c1cccc(COc2cc(OCc3cccnc3)c(CN[C@@H](CCO)C(=O)O)cc2Cl)c1`, the IC50 in [7] was 0.04 nM. What is called EC50 is the concentration giving half of the maximal effect. Turning to `C[C@H](O)[C@H](NC(=O)N[C@@H](CC(N)=O)C(=O)NNC(=O)[C@@H](N)CO)C(=O)O`, the Activity in [1] is 87%; in assay [2] it was 68%. The EC50 was 30 nM in assay [9] and 40 nM in assay [10]. In turn, `CNC(=O)C[C@@H]1NC(=O)O[C@@H]([C@H](C)O)C(=O)NCCOCCOCC(=O)N[C@@H](CCO)c2noc1n2` had an IC50 in assay [11] of under 10 nM. The same measure, in the same setting: next, `C[C@H](O)[C@@H]1NC(=O)NCc2nc(no2)[C@H](CO)NC(=O)COCCOCCNC1=O`: under 10 nM. In assay [12], `Cc1c(/C=C/c2nc(CNC(C)(CO)C(=O)O)ccc2C(F)(F)F)cccc1-c1ccc2c(c1)OCCO2` (centres undefined) yielded an IC50 of 18 nM. Still for that read-out and setting: next, `COc1cc(/C=C/c2cccc(-c3ccccc3)c2)cc(OC)c1CN[C@](C)(CO)C(=O)O`: 48 nM.

Regarding `CC(O)[C@H](N)c1nnc([C@]2(NC(=O)N[C@@H](CO)C(=O)O)C[C@H](CC#N)C2)o1` (some centres undefined), the Activity in assay [13] stood at 63.7%. In turn, `Cc1c(COc2cc(OCc3cncc(C#N)c3)c(CN[C@@H](CO)C(=O)O)cc2Cl)cccc1-c1cccc(OCCCN2CCC(O)CC2)c1` had an IC50 in [7] of 0.48 nM. Take `C[C@H](O)[C@H](NC(=O)N[C@@H](CC(N)=O)c1nnc([C@@H](N)CO)s1)C(=O)O`: the IC50 in [14] was determined as 17 nM; in assay [15] it was 37 nM. For the compound `CC[C@H](C)[C@H](NC(=O)[C@H](CCC(N)=O)NC(=O)[C@H](C)NC(=O)[C@H](CCCCN)NC(=O)[C@H]1CCCN1C(=O)[C@H](C)NC(=O)[C@H](CC(C)C)NC(=O)[C@H](CCC(N)=O)NC(=O)[C@@H](NC(=O)[C@@H](NC(=O)[C@H](CCCNC(=N)N)NC(=O)[C@H](Cc1ccccc1)NC(=O)[C@H](CCCCNC(=O)[C@H](Cc1ccccc1)NC(=O)[C@H](CO)NC(=O)[C@H](CCC(=O)O)NC(=O)[C@H](CO)NC(=O)[C@@H](NC(=O)[C@H](CC(N)=O)NC(=O)[C@@H](N)CO)C(C)O)NC(=O)[C@H](Cc1ccccc1)NC(=O)[C@H](CO)NC(=O)[C@H](CCC(=O)O)NC(=O)[C@H](CO)NC(=O)[C@@H](NC(=O)[C@H](CC(N)=O)NC(=O)[C@@H](N)CO)[C@@H](C)O)C(C)C)[C@@H](C)O)C(=O)N[C@@H](CCCCN)C(=O)N[C@@H](CCC(=O)O)C(N)=O` (some centres undefined), the EC50 was found to be 0.41 nM in assay [9] and 0.72 nM in [10]. In turn, `C[C@H](O)[C@@H]1NC(=O)N[C@H](C(N)=O)C(=O)NNC(=O)[C@H](CO)NC(=O)CCOCCOCCNC1=O` showed an Activity in assay [2] of 95%. `N#Cc1c(-c2ccccc2)cccc1N1CCC(NC2CCCOC2)CC1` (centres undefined) had a half-maximal inhibitory concentration (IC50) in assay [5] of under 1000 nM. In turn, `C[C@@H](O)[C@H](N)c1nnc([C@H](CCC(N)=O)NC(=O)N[C@@H](CO)C(=O)O)o1` came in with an Activity in assay [2] of 92%.

What is called Kd is the concentration at which binding is half-saturated. Turning to `C[C@H](NC(=O)[C@H](Cc1ccc(O)cc1)NC(=O)[C@H](CCC(N)=O)NC(=O)CNC(=O)[C@@H](N)CO)C(=O)N[C@@H](CO)C(=O)N[C@@H](Cc1ccc(O)cc1)C(=O)N[C@@H](Cc1cnc[nH]1)C(=O)N[C@@H](CS)C(=O)N[C@@H](Cc1c[nH]c2ccccc12)C(=O)N[C@@H](CS)C(=O)N[C@@H](Cc1c[nH]c2ccccc12)C(=O)N[C@@H](CCCNC(=N)N)C(=O)N[C@@H](CC(=O)O)C(=O)N1CCC[C@H]1C(=O)NCC(=O)N[C@@H](CCCNC(=N)N)C(=O)N[C@@H](CO)C(=O)NCC(=O)NCC(=O)N[C@@H](CO)C(=O)N[C@@H](CCCCN)C(=O)O` (H-SGQYASYHCWCWRDPGRSGGSK-OH), the Kd in [16] was determined as 94 nM. For the same compound, the Activity in assay [17] came out at 56%.

In the case of `C[C@@H](O)[C@H](NC(=O)[C@H](CC(N)=O)NC(=O)[C@@H](N)CO)C(=O)N[C@@H](CO)C(=O)NC(CCC(=O)NCCCCNC(=O)C(Cc1ccccc1)NC(=O)C(N)CO)C(N)=O` (some centres undefined) (H-SNTS[ξE](X1)-NH2), the Activity in assay [6] turned out to be 64%. As for `COc1cc(NS(=O)(=O)c2ccc(N)cc2)ncn1` [SULFAMONOMETHOXINE], the IC50 in assay [18] is over 400 nM.

Take H-GNWDYNSQRAQLYNQ-OH: the Kd in assay [16] is 1380 nM.
